Results published in patent US10167293B2, “[8-(phenylsulfonyl)-3,8-diazabicyclo[3.2.1]oct-3-yl](1H-1,2,3-triazol-4-yl)methanones” (BAYER PHARMA AKTIENGESELLSCHAFT, priority 2016, dated 2019).

molecular target: recombinant human AKR1C3 (Homo sapiens (Human), UniProt P42330); test: AKR1C3-inhibitory activity assay (Coumberone to Coumberol fluorescence); type: biochemical; settings: recombinant human AKR1C3, 15 min pre-incubation, 10 μM NADPH, 0.3 μM Coumberone
Method: The AKR1C3-inhibitory activity of the substances of the present invention was measured in the AKR1C3 assay described in the paragraphs below.
Essentially, the enzyme activity is measured by quantification of the generation of Coumberol from Coumberone (Halim et al. J. AM. CHEM. SOC. 2008, 130:14123-14128 and Yee et al. Proc. Natl. Acad. Sci. USA 2006, 103:13304-13309). In this test, the increase of the highly fluorescent Coumberol by NADPH—(nicotinamide adenine dinucleotide phosphate)-dependent reduction of the non-fluorescent Coumberone by AKR1C3 was determined.
The enzyme used was recombinant human AKR1C3 (Aldo-keto reductase family 1 member C3; GenBank Accession No. NM_003739). This was expressed in E. coli as GST (glutathione S transferase) fusion protein and purified by glutathione Sepharose affinity chromatography. The GST was removed by digestion with thrombin and subsequent size exclusion chromatography (Dufort, I., Rheault, P., Huang, X F., Soucy, P., and Luu-The, V., Endocrinology 140, 568-574 (1999)).
For the assay, 50 nl of a 100-fold concentrated solution of the test substance in DMSO were pipetted into a black low-volume 384-well microtiter plate (Greiner Bio-One, Frickenhausen, Germany), 2.5 μl of a solution of AKR1C3 in assay buffer [50 mM potassium phosphate buffer pH 7, 1 mM DTT, 0.0022% (w/v) Pluronic F-127, 0.01% BSA (w/v) and protease inhibitor cocktail (Complete, EDTA-free Protease Inhibitor Cocktail from Roche)] were added and the mixture was incubated for 15 min to allow pre-binding of the substances to the enzyme prior to the enzyme reaction. The enzyme reaction was then started by addition of 2.5 μl of a solution of NADPH (20 μM→final concentration in 5 μl of assay volume is 10 μM) and Coumberone (0.6 μM→final concentration in 5 μl of assay volume is 0.3 μM) in assay buffer, and the resulting mixture was incubated at 22° C. for the reaction time of typically 90 min. The concentration of the AKR1C3 and the reaction time was adapted to the respective activity of the enzyme preparation and adjusted such that the assay was carried out in the linear range. Typical AKR1C3 concentrations were in the region of 1 nM. The reaction was stopped by addition of 2.5 μl of a stop solution consisting of 3 μM EM-1404 as inhibitor (U.S. Pat. No. 6,541,463) in 50 mM HEPES pH7.5 (3 μM EM-1404→final concentration in 7.5 μl of assay volume is 1 μM). The fluorescence of the Coumberole was then measured at 520 nm (excitation at 380 nm) using a suitable measuring instrument (Pherastar from BMG Labtechnologies). The intensity of the fluorescence was used as a measure of the amount of Coumberole formed and thus of the enzyme activity of AKR1C3. The data were normalized (enzyme reaction without inhibitor=0% inhibition; all other assay components, but no enzyme=100% inhibition).

Chain of recombinant human AKR1C3 (P42330 whole entry): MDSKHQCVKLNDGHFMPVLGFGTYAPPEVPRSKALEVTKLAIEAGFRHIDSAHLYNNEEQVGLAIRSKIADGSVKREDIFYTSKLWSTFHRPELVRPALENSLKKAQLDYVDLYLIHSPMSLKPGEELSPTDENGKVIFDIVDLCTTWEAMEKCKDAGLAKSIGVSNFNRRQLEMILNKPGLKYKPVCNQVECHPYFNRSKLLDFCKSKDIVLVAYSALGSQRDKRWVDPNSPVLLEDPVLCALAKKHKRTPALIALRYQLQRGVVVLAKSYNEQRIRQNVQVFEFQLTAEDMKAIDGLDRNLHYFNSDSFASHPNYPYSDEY

Row | Structure (SMILES) | IC50 [nM]
1 | Cc1c(Cl)cccc1S(=O)(=O)N1C2CCC1CN(C(=O)c1cnn[nH]1)C2 [Example 26, {8-[(3-chloro-2-methylphenyl)sulfonyl]-3,8-diazabicyclo[3.2.1]oct-3-yl}(1H-1,2,3-triazol-5-yl)methanone] | 1.1
2 | O=C(c1c[nH]nn1)N1CC2CCC(C1)N2S(=O)(=O)c1cc(C(F)(F)F)cc(C(F)(F)F)c1 [Example 10] | 7.3
3 | COc1ccccc1S(=O)(=O)N1C2CCC1CN(C(=O)c1cnn[nH]1)C2 [Example 64, {8-[(2-methoxyphenyl)sulfonyl]-3,8-diazabicyclo[3.2.1]oct-3-yl}(1H-1,2,3-triazol-5-yl)methanone] | 1.3
4 | O=C(c1cnn[nH]1)N1CC2CCC(C1)N2S(=O)(=O)c1cccc([N+](=O)[O-])c1 [Example 44, {8-[(3-nitrophenyl)sulfonyl]-3,8-diazabicyclo[3.2.1]oct-3-yl}(1H-1,2,3-triazol-5-yl)methanone] | 1.9
5 | O=C(c1cnn[nH]1)N1CC2CCC(C1)N2S(=O)(=O)c1ccc(Cl)c(Cl)c1 [Example 48, {8-[(3,4-dichlorophenyl)sulfonyl]-3,8-diazabicyclo[3.2.1]oct-3-yl}(1H-1,2,3-triazol-5-yl)methanone] | 1.1
6 | O=C(c1cnn[nH]1)N1CC2CCC(C1)N2S(=O)(=O)c1ccc(F)cc1Cl [Example 50, {8-[(2-chloro-4-fluorophenyl)sulfonyl]-3,8-diazabicyclo[3.2.1]oct-3-yl}(1H-1,2,3-triazol-5-yl)methanone] | 0.9
7 | COc1ccc(S(=O)(=O)N2C3CCC2CN(C(=O)c2cnn[nH]2)C3)cc1 [Example 21, {8-[(4-methoxyphenyl)sulfonyl]-3,8-diazabicyclo[3.2.1]oct-3-yl}(1H-1,2,3-triazol-5-yl)methanone] | 2
8 | COc1cc(C)ccc1S(=O)(=O)N1C2CCC1CN(C(=O)c1cnn[nH]1)C2 [Example 67, {8-[(2-methoxy-4-methylphenyl)sulfonyl]-3,8-diazabicyclo[3.2.1]oct-3-yl}(1H-1,2,3-triazol-5-yl)methanone] | 1
9 | O=C(c1c[nH]nn1)N1CC2CCC(C1)N2S(=O)(=O)c1ccccc1 [Example 1, [8-(phenylsulfonyl)-3,8-diazabicyclo[3.2.1]oct-3-yl](1H-1,2,3-triazol-4-yl)methanone] | 3.7
10 | O=C(c1cnn[nH]1)N1CC2CCC(C1)N2S(=O)(=O)c1cc(F)cc(F)c1 [Example 3, {8-[(3,5-difluorophenyl)sulfonyl]-3,8-diazabicyclo[3.2.1]oct-3-yl}(1H-1,2,3-triazol-5-yl)methanone] | 1.4
11 | O=C(c1cnn[nH]1)N1CC2CCC(C1)N2S(=O)(=O)c1cccc(F)c1Cl [Example 71, {8-[(2-chloro-3-fluorophenyl)sulfonyl]-3,8-diazabicyclo[3.2.1]oct-3-yl}(1H-1,2,3-triazol-5-yl)methanone] | 0.8
12 | N#Cc1cccc(S(=O)(=O)N2C3CCC2CN(C(=O)c2cnn[nH]2)C3)c1 [Example 17, 3-{[3-(1H-1,2,3-triazol-5-ylcarbonyl)-3,8-diazabicyclo[3.2.1]oct-8-yl]sulfonyl}benzonitrile] | 2.9
13 | O=C(c1cnn[nH]1)N1CC2CCC(C1)N2S(=O)(=O)c1ccc(O)cc1 [Example 37, {8-[(4-hydroxyphenyl)sulfonyl]-3,8-diazabicyclo[3.2.1]oct-3-yl}(1H-1,2,3-triazol-5-yl)methanone] | 2.8
14 | O=C(c1c[nH]nn1)N1CC2CCC(C1)N2S(=O)(=O)c1ccc(Cl)s1 [Example 11, {8-[(5-chlorothiophen-2-yl)sulfonyl]-3,8-diazabicyclo[3.2.1]oct-3-yl}(1H-1,2,3-triazol-4-yl)methanone] | 1.1
15 | O=C(c1cnn[nH]1)N1CC2CCC(C1)N2S(=O)(=O)c1cccc(Cl)c1F [Example 27, {8-[(3-chloro-2-fluorophenyl)sulfonyl]-3,8-diazabicyclo[3.2.1]oct-3-yl}(1H-1,2,3-triazol-5-yl)methanone] | 0.9
